Measurements from US8497266B2, “3-(3-pyrimidin-2-ylbenzyl)-1,2,4-triazolo[4,3-b]pyridazine derivatives as MET kinase inhibitors” (Merck Patent GmbH, priority 2008, dated 2013).

Experiments:
[1] = target: T1, Met kinase (Homo sapiens, UniProt P08581); assay: Met kinase inhibition, flashplate method (enzyme); assay type: biochemical; parameters: 6His (N); purchased Upstate 14-526; host or cells: Sf21 insect cells (S. frugiperda), baculovirus
From the text: According to the manufacturer's data (Met, active, Upstate, catalogue No. 14-526), Met kinase is expressed for the purposes of protein production in insect cells (Sf21; S. frugiperda) and subsequent affinity-chromatographic purification as “N-terminal 6His-tagged” recombinant human protein in a baculovirus expression vector.
The test plates used are 96-well Flashplate® microtitre plates from Perkin Elmer (Cat. No. SMP200). The components of the kinase reaction described below are pipetted into the assay plate. The Met kinase and the substrate poly Ala-Glu-Lys-Tyr, (pAGLT, 6:2:5:1), are incubated for 3 hrs at room temperature with radioactively labelled ^33P-ATP in the presence and absence of test substances in a total volume of 100 μl. The reaction is terminated using 150 μl of a 60 mM EDTA solution. After incubation for a further 30 min at room temperature, the supernatants are filtered off with suction, and the wells are washed three times with 200 μl of 0.9% NaCl solution each time. The measurement of the bound radioactivity is carried out by means of a scintillation measuring instrument (Topcount NXT, Perkin-Elmer).
The full value used is the inhibitor-free kinase reaction. This should be approximately in the range 6000-9000 cpm. The pharmacological zero value used is staurosporin in a final concentration of 0.1 mM. The inhibitory values (IC50) are determined using the RS1_MTS program.
Kinase reaction conditions per well: • 30 μl of assay buffer • 10 μl of substance to be tested in assay buffer with 10% of DMSO • 10 μl of ATP (final concentration 1 μM cold, 0.35 μCi of ^33P-ATP) • 50 μl of Met kinase/substrate mixture in assay buffer; • (10 ng of enzyme/well, 50 ng of pAGLT/well) • Solutions used: • Assay buffer: • 50 mM HEPES • 3 mM magnesium chloride • 3 μM sodium orthovanadate • 3 mM manganese(II) chloride • 1 mM dithiothreitol (DTT) • pH=7.5 (to be set using sodium hydroxide) • Stop solution: • 60 mM Titriplex III (EDTA) • ^33P-ATP: Perkin-Elmer; • Met kinase: Upstate, Cat. No. 14-526, Stock 1 μg/10 μl; spec. activity 954 U/mg; • Poly-Ala-Glu-Lys-Tyr, 6:2:5:1: Sigma Cat. No. P1152 In-Vivo Tests
Target sequence in this assay (P08581 956-1390 limits assumed): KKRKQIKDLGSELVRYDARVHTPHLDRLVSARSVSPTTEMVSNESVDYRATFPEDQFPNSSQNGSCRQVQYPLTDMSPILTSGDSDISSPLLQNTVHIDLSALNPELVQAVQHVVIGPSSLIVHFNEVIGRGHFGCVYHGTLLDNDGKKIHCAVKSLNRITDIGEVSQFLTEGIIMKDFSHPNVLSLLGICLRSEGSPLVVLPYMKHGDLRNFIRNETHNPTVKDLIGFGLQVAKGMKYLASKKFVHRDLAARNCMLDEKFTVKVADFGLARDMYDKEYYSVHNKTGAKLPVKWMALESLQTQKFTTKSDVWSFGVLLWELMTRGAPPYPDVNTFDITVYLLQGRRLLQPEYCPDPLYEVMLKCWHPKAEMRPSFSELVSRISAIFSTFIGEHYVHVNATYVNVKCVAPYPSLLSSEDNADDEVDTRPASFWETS

[2] = target: T1, Met kinase; assay: Met kinase inhibition (cell); assay type: cell-based
Target sequence in this assay (P08581 25-1390): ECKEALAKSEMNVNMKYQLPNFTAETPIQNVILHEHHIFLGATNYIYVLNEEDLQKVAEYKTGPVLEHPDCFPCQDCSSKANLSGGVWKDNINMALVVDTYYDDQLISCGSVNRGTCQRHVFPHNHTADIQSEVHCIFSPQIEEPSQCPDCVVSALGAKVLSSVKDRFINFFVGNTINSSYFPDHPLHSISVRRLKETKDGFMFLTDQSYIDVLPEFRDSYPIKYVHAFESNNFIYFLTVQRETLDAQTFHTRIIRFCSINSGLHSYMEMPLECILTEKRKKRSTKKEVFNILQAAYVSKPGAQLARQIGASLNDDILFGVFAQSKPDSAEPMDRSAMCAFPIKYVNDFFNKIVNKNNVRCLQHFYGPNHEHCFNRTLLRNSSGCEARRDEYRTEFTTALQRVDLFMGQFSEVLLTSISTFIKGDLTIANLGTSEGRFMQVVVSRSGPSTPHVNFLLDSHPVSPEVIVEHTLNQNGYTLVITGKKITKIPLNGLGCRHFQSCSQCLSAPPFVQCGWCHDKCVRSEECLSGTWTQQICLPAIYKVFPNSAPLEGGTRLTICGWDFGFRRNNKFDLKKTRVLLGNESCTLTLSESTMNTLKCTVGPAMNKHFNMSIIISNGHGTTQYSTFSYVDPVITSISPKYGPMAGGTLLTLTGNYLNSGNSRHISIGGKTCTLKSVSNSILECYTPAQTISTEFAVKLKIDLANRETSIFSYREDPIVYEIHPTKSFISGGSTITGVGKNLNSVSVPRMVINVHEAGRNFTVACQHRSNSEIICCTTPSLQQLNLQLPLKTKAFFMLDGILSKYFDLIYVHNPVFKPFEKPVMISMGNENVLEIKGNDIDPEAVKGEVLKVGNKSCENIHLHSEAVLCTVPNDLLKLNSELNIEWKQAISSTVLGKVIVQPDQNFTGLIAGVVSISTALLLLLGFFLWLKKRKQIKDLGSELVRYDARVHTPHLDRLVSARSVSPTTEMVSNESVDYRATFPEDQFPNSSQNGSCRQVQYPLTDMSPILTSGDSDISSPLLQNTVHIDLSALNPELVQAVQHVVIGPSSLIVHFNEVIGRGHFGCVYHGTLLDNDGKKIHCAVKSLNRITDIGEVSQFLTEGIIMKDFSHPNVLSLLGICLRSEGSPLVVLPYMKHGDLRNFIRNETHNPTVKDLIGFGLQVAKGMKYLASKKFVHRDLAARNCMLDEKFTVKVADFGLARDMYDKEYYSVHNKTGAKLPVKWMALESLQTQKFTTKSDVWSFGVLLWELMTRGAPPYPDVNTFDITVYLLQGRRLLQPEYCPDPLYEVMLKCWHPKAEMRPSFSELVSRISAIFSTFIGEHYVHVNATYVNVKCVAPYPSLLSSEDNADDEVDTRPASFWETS

With Cn1cc(-c2ccc3nnc(Cc4cccc(-c5ncc(Br)cn5)c4)n3n2)cn1 [Compound A1, 3-[3-(5-bromopyrimidin-2-yl)benzyl]-6-(1-methyl-1H-pyrazol-4-yl)-1,2,4-triazolo[4,3-b]pyridazine] the IC50 [1] was 1 to 100 nM and the IC50 [2] was 1 to 100 nM.

With Cn1cc(-c2ccc3nnc(C(F)(F)c4cccc(-c5ncc(Br)cn5)c4)n3n2)cn1 [Compound A3, 3-{[3-(5-bromopyrimidin-2-yl)phenyl]difluoromethyl}-6-(1-methyl-1H-pyrazol-4-yl)-1,2,4-triazolo[4,3-b]pyridazine] the IC50 [1] was 1 to 100 nM and the IC50 [2] was 1 to 100 nM.

For N#Cc1cccc(-c2ccc3nnc(C(F)(F)c4cccc(-c5ncc(Br)cn5)c4)n3n2)c1 [Compound A3a, 3-(3-{[3-(5-bromopyrimidin-2-yl)phenyl]difluoromethyl}-1,2,4-triazolo[4,3-b]-pyridazin-6-yl)benzonitrile], the IC50 [1] was 1 to 100 nM and the IC50 [2] was 1 to 100 nM.

Compound Cn1cc(-c2ccc3nnc(C4(c5cccc(-c6ncc(Br)cn6)c5)CC4)n3n2)cn1 [Compound A4] has an IC50 [1] of 1 to 100 nM and an IC50 [2] of 100 to 10000 nM.

Work on N#Cc1cccc(-c2ccc3nnc(Cc4cccc(-c5ncc(Br)cn5)c4)n3n2)c1 [Compound A5, 3-{3-[3-(5-bromopyrimidin-2-yl)benzyl]-1,2,4-triazolo[4,3-b]-pyridazin-6-yl}benzonitrile] yielded an IC50 [1] of 1 to 100 nM and an IC50 [2] of 1 to 100 nM.

Compound Cc1ccc2nnc(Cc3cccc(-c4ncc(Br)cn4)c3)n2n1 [Compound A6] has an IC50 [1] of 1 to 100 nM and an IC50 [2] of 100 to 10000 nM.

In the case of Cn1cc(-c2ccc3nnc(C(F)(F)c4cccc(-c5ncc(-c6cnn(CCN7CCCC7)c6)cn5)c4)n3n2)cn1 [Compound A7], the IC50 [1] is reported as 1 to 100 nM and the IC50 [2] is reported as 1 to 100 nM.

With Cn1cc(-c2ccc3nnc(C4(c5cccc(-c6ncc(-c7cnn(CCN8CCCC8)c7)cn6)c5)CC4)n3n2)cn1 [Compound A8] the IC50 [1] was 1 to 100 nM and the IC50 [2] was 1 to 100 nM.

Cc1ccc2nnc(Cc3cccc(-c4ncc(-c5cnn(CCN6CCCC6)c5)cn4)c3)n2n1 [Compound A9] was tested, and the IC50 [1] was 1 to 100 nM and the IC50 [2] was 1 to 100 nM.

In the case of CN1CCN(c2cnc(-c3cccc(Cc4nnc5ccc(-c6cnn(C)c6)nn45)c3)nc2)CC1 [Compound A11, 3-{3-[5-(4-methylpiperazin-1-yl)pyrimidin-2-yl]benzyl}-6-(1-methyl-1H-pyrazol-4-yl)-1,2,4-triazolo[4,3-b]pyridazine], the IC50 [1] is reported as 1 to 100 nM and the IC50 [2] is reported as 1 to 100 nM.

For Cn1cc(-c2ccc3nnc(C(F)(F)c4cccc(-c5ncc(OCCN6CCOCC6)cn5)c4)n3n2)cn1 [Compound A12, 3-(difluoro-{3-[5-(2-morpholin-4-ylethoxy)pyrimidin-2-yl]-phenyl}methyl)-6-(1-methyl-1H-pyrazol-4-yl)-1,2,4-triazolo[4,3-b]pyridazine], the IC50 [1] was 1 to 100 nM and the IC50 [2] was 1 to 100 nM.

CN1CCN(c2cnc(-c3cccc(C(F)(F)c4nnc5ccc(-c6cnn(C)c6)nn45)c3)nc2)CC1 [Compound A16] was tested, and the IC50 [1] was 1 to 100 nM and the IC50 [2] was 1 to 100 nM.

For Cc1ccc2nnc(Cc3cccc(-c4ncc(N5CCN(C)CC5)cn4)c3)n2n1 [Compound A17], the IC50 [1] was 1 to 100 nM and the IC50 [2] was 1 to 100 nM.

N#Cc1cccc(-c2ccc3nnc(C(F)(F)c4cccc(-c5ncc(-c6cnn(CCN7CCCC7)c6)cn5)c4)n3n2)c1 [Compound A19] was tested, and the IC50 [1] was 1 to 100 nM and the IC50 [2] was 1 to 100 nM.

N#Cc1cccc(-c2ccc3nnc(Cc4cccc(-c5ncc(-c6cnn(CCN7CCCC7)c6)cn5)c4)n3n2)c1 [Compound A20] was tested, and the IC50 [1] was 1 to 100 nM and the IC50 [2] was 1 to 100 nM.

Compound Cc1ccc2nnc(C(F)(F)c3cccc(-c4ncc(-c5cnn(CCN6CCCC6)c5)cn4)c3)n2n1 [Compound A21] has an IC50 [1] of 1 to 100 nM and an IC50 [2] of 1 to 100 nM.

CC(c1cccc(-c2ncc(-c3cnn(CCN4CCCC4)c3)cn2)c1)c1nnc2ccc(-c3cnn(C)c3)nn12 (stereo not drawn) [Compound A22] showed an IC50 [1] of 1 to 100 nM and an IC50 [2] of 1 to 100 nM.

In the case of CN1CCN(c2cnc(-c3cccc(C(F)(F)c4nnc5ccc(-c6cccc(C#N)c6)nn45)c3)nc2)CC1 [Compound A23], the IC50 [1] is reported as 1 to 100 nM and the IC50 [2] is reported as 1 to 100 nM.

In the case of N#Cc1cccc(-c2ccc3nnc(C(F)(F)c4cccc(-c5ncc(N6CCNCC6)cn5)c4)n3n2)c1 [Compound A24], the IC50 [1] is reported as 1 to 100 nM and the IC50 [2] is reported as 1 to 100 nM.

For Cc1ccc2nnc(C(F)(F)c3cccc(-c4ncc(N5CCN(C)CC5)cn4)c3)n2n1 [Compound A25], the IC50 [1] was 1 to 100 nM and the IC50 [2] was 1 to 100 nM.

Cn1cc(-c2ccc3nnc(C(F)(F)c4cccc(-c5ncccn5)c4)n3n2)cn1 [Compound A26, 3-[difluoro-(3-pyrimidin-2-ylphenyl)methyl]-6-(1-methyl-1H-pyrazol-4-yl)-1,2,4-triazolo[4,3-b]pyridazine] gave an IC50 [1] of 1 to 100 nM and an IC50 [2] of 1 to 100 nM.

Work on Cc1ccc2nnc(C(F)(F)c3cccc(-c4ncc(Br)cn4)c3)n2n1 [Compound A27, 3-{[3-(5-bromopyrimidin-2-yl)phenyl]difluoromethyl}-6-methyl-1,2,4-triazolo[4,3-b]pyridazine] yielded an IC50 [1] of 1 to 100 nM and an IC50 [2] of 1 to 100 nM.

In the case of Cc1ccc2nnc(C(F)(F)c3cccc(-c4ncc(OCC5CCN(C)CC5)cn4)c3)n2n1 [Compound A41, 3-(difluoro-{3-[5-(1-methylpiperidin-4-ylmethoxy)pyrimidin-2-yl]phenyl}methyl)-6-methyl-1,2,4-triazolo[4,3-b]pyridazine], the IC50 [1] is reported as 1 to 100 nM and the IC50 [2] is reported as 1 to 100 nM.

In the case of OCCn1cc(-c2ccc3nnc(Cc4cccc(-c5ncc(Br)cn5)c4)n3n2)cn1 [Compound A43, 2-(4-{3-[3-(5-bromopyrimidin-2-yl)benzyl]-1,2,4-triazolo-[4,3-b]pyridazin-6-yl}pyrazol-1-yl)ethanol], the IC50 [1] is reported as 1 to 100 nM and the IC50 [2] is reported as 1 to 100 nM.
